Laboratory results from the NIST ThermoML archive (doi:10.1016/j.jct.2019.02.006).
Numbers after ± are expanded uncertainties.

Conditions: Liquid, Ebulliometric method (Recirculating still)

CCCCCCC [heptane]
vapor or sublimation pressure (371.53 K): 101.3 ± 5.1 kPa

COC(=O)CCCC(=O)OC [dimethyl pentanedioate]
vapor or sublimation pressure (376.09 K): 2 ± 0.3 kPa
vapor or sublimation pressure (395.8 K): 5.2 ± 0.3 kPa
vapor or sublimation pressure (407.11 K): 8.3 ± 0.3 kPa

COC(=O)CCCCC(=O)OC [dimethyl 1,6-hexanedioate]
vapor or sublimation pressure (390.98 K): 2 ± 0.3 kPa
vapor or sublimation pressure (410.82 K): 5.2 ± 0.3 kPa
vapor or sublimation pressure (422.47 K): 8.3 ± 0.3 kPa

C1CCCCC1 [cyclohexane]
vapor or sublimation pressure (353.94 K): 101.3 ± 5.1 kPa

COC(=O)CCC(=O)OC [dimethyl 1,4-butanedioate]
vapor or sublimation pressure (363.39 K): 2 ± 0.3 kPa
vapor or sublimation pressure (382.13 K): 5.2 ± 0.3 kPa
vapor or sublimation pressure (393.49 K): 8.3 ± 0.3 kPa
